Assay results from PMC7073140, “Hybridization with Insect Cecropin A (1–8) Improve the Stability and Selectivity of Naturally Occurring Peptides” (International Journal of Molecular Sciences, 2020).
Converted amounts (≈) assume the structure as drawn. Residues, ends and D or L forms follow the SMILES beside them.

How the values were obtained:
Assay type in all cases: cell-based
[1] = tested on: Gram-positive and Gram-negative bacteria; assay: MIC over all tested bacterial strains (range, geometric mean); settings: for GM, geometric mean of the MIC values: all tested strains, 256 μM used where no activity at 128 μM
Description: (§1) Minimum inhibitory concentrations (MICs) were determined as previously described. The bacteria used to determine the MIC were first cultured in Mueller-Hilton broth (MHB) (AoBoX, Beijing, China) overnight at 37 °C and transferred into a fresh and sterile MHB and grown to an OD600 of 0.4. The bacteria then adjusted to a cell density of 5×10^5 CFU mL^−1 in MHB. Peptides were serially diluted in 0.01% acetic acid and 0.2% bovine serum albumin (BSA) (Sigma-Aldrich, Shanghai, China) in a volume of 50 μL per well to achieve final concentration ranging from 1 to 128 μM in sterile 96-well plates. 50 μL of prepared bacterial suspension was added to each well. The mixtures were incubated at 37 °C for 18–24 h. The MICs were calculated as the lowest concentration of the peptide that prevented visible turbidity. The tests were performed in triplicate using three replicates for each experiment.
It is calculated as HC10/GM.

S. aureus ATCC29213 = tested on: S. aureus ATCC29213
Description: as §1

E. coli UB 1005 = tested on: E. coli UB 1005
Description: as §1

E. coli ATCC25922 = tested on: E. coli ATCC25922
Description: as §1

S. pullorum C7913 = tested on: S. pullorum C7913
Description: as §1

S. typhimurium C7731 = tested on: S. typhimurium C7731
Description: as §1

S. epidermidis ATCC12228 = tested on: S. epidermidis ATCC12228
Description: as §1

S. faecalis ATCC29212 = tested on: S. faecalis ATCC29212
Description: as §1

S. typhimurium ATCC14028 = tested on: S. typhimurium ATCC14028
Description: as §1

P. aeruginosa ATCC27853 = tested on: P. aeruginosa ATCC27853
Description: as §1

human erythrocytes = assay: Hemolytic activity; settings: for HC10, concentration that induced 10% hemolysis of human red blood cells: probit regression in SPSS, unit not given (peptides tested at 0.5–256 µM)
Description: Hemolytic activities of the peptides were determined according to the method described previously. Fresh heparinized human whole blood from healthy donor (Yang Yang, Harbin, China) was centrifuged at 1000 g for 5 min at 4 °C. The obtained erythrocytes were washed three times and resuspended in PBS. Then, 50 μL of erythrocyte solution was incubated with 50 μL peptides at different concentrations at 37 °C for 1 h. Erythrocytes in either PBS or 0.1% Triton X-100 (Sigma-Aldrich, Shanghai, China) were used as negative and positive controls, respectively. After centrifugation at 1000 g for 5 min at 4 °C, the supernatant was transferred into a new 96-well plate and the extent of hemolysis was monitored using a multimode microplate reader (Infinite M200 Pro, Tecan, Switzerland) at 576 nm. The percentage of hemolysis was calculated according to the following formula:hemolysis (%) = [(A-A0)/(At-A0)]×100(2) where A is the absorbance of the peptide sample, A0 and At represent 0% and 100% hemolysis determined in 10 mM PBS and 0.1% Triton X-100, respectively. Results were expressed as average values from three independent experiments and each experiment was performed in triplicate.
For statistical evaluation, data were analyzed using the Statistical Product and Service Solutions software (SPSS Inc., Chicago, IL, USA) by one-way ANOVA and the values were presented as mean ± standard error (SE). HC10 values were calculated by using probit regression in SPSS 19.

E. coli ATCC 25922 = settings: ATCC 25922, 2 h
Description: (§2) Minimum inhibitory concentrations (MICs) were determined as previously described. […] The bacteria then adjusted to a cell density of 5×10^5 CFU mL^−1 in MHB. […] The mixtures were incubated at 37 °C for 18–24 h. The MICs were calculated as the lowest concentration of the peptide that prevented visible turbidity. The tests were performed in triplicate using three replicates for each experiment. Serum stability was determined according to the method previously described. Human serum was added in the peptide solution with the volume ratio of 1:1 in which the final concentration of 50% v/v of serum was yielded. Serum-peptide mixtures with the final concentration of 25% and 12.5% v/v serum were also prepared. Subsequently, the mixture was incubated at 37 °C for 2h. The antimicrobial activities of serum-preincubated peptides were determined according the MIC assay described above.

S. aureus ATCC 29213 = settings: ATCC 29213, 2 h
Description: as §2

Structure (SMILES)	GM, geometric mean of the MIC values [1] [µM]	MIC (S. aureus ATCC29213) [µM]	MIC (E. coli UB 1005) [µM]	MIC (E. coli ATCC25922) [µM]	MIC (S. pullorum C7913) [µM]	MIC (S. typhimurium C7731) [µM]	MIC (S. epidermidis ATCC12228) [µM]	MIC (S. faecalis ATCC29212) [µM]	MIC (S. typhimurium ATCC14028) [µM]	MIC (P. aeruginosa ATCC27853) [µM]	HC10, concentration that induced 10% hemolysis of human red blood cells (human erythrocytes; 37 °C, 1 h)	MIC after incubating with human serum (E. coli ATCC 25922) [µM]	MIC after incubating with human serum (S. aureus ATCC 29213) [µM]	MICs range against all tested bacterial strains ([1]; all nine tested Gram-negative and Gram-positive strains) [µM]	hemolytic activity (human erythrocytes; 256 μM peptide, 37 °C, 1 h, absorbance 576 nm, average of three independent experiments) [%]	fold decrease of hemolysis compared to CA (human erythrocytes; at 256 μM)
CC[C@H](C)[C@H](NC(=O)[C@H](CCCCN)NC(=O)[C@H](CCCNC(=N)N)NC(=O)[C@H](CC(C)C)NC(=O)[C@H](Cc1ccccc1)NC(=O)[C@H](CCCNC(=N)N)NC(=O)CNC(=O)[C@H](Cc1ccccc1)NC(=O)[C@@H](N)CCCNC(=N)N)C(=O)N[C@@H](CCCNC(=N)N)C(=O)N[C@@H](CCCNC(=N)N)C(=O)N[C@@H](Cc1ccccc1)C(=O)N[C@@H](CCCNC(=N)N)C(=O)N1CCC[C@H]1C(=O)N[C@@H](CCCCN)C(N)=O [FO] (H-RFGRFLRKIRRFRPK-NH2)	25.40	64 (≈ 130 µg/mL)	16 (≈ 32.5 µg/mL)	32 (≈ 65 µg/mL)	16 (≈ 32.5 µg/mL)	32 (≈ 65 µg/mL)	16 (≈ 32.5 µg/mL)	16 (≈ 32.5 µg/mL)	32 (≈ 65 µg/mL)	32 (≈ 65 µg/mL)	2.78	–	–	–	–	–
CC(C)C[C@H](NC(=O)[C@H](Cc1ccccc1)NC(=O)[C@@H]1CCCN1C(=O)[C@H](Cc1c[nH]c2ccccc12)NC(=O)[C@@H](N)Cc1c[nH]c2ccccc12)C(=O)N[C@@H](CCCNC(=N)N)C(=O)N[C@@H](CCCNC(=N)N)C(N)=O [TP] (H-WWPFLRR-NH2)	74.66	64 (≈ 67.8 µg/mL)	128 (≈ 136 µg/mL)	128 (≈ 136 µg/mL)	64 (≈ 67.8 µg/mL)	64 (≈ 67.8 µg/mL)	32 (≈ 33.9 µg/mL)	>128	32 (≈ 33.9 µg/mL)	64 (≈ 67.8 µg/mL)	25.06	–	–	–	–	–
CC[C@H](C)[C@H](NC(=O)[C@H](CCCCN)NC(=O)[C@H](CCCCN)NC(=O)[C@H](Cc1ccccc1)NC(=O)[C@H](CC(C)C)NC(=O)[C@H](CCCCN)NC(=O)[C@H](Cc1c[nH]c2ccccc12)NC(=O)[C@@H](N)CCCCN)C(=O)N[C@@H](CCCNC(=N)N)C(=O)N[C@@H](Cc1ccccc1)C(=O)NCC(=O)N[C@@H](CCCNC(=N)N)C(=O)N[C@@H](Cc1ccccc1)C(=O)N[C@@H](CC(C)C)C(=O)N[C@@H](CCCNC(=N)N)C(=O)N[C@@H](CCCCN)C(=O)N[C@H](C(=O)N[C@@H](CCCNC(=N)N)C(=O)N[C@@H](CCCNC(=N)N)C(=O)N[C@@H](Cc1ccccc1)C(=O)N[C@@H](CCCNC(=N)N)C(=O)N1CCC[C@H]1C(=O)N[C@@H](CCCCN)C(N)=O)[C@@H](C)CC [CA-FO] (H-KWKLFKKIRFGRFLRKIRRFRPK-NH2)	3.43	2 (≈ 6.21 µg/mL)	2 (≈ 6.21 µg/mL)	2 (≈ 6.21 µg/mL)	8 (≈ 24.8 µg/mL)	4 (≈ 12.4 µg/mL)	4 (≈ 12.4 µg/mL)	4 (≈ 12.4 µg/mL)	4 (≈ 12.4 µg/mL)	4 (≈ 12.4 µg/mL)	143.34	4	4	2 to 8	13.83	approximately 5 fold
CC[C@H](C)[C@H](NC(=O)[C@H](CCCCN)NC(=O)[C@H](CCCCN)NC(=O)[C@H](Cc1ccccc1)NC(=O)[C@H](CC(C)C)NC(=O)[C@H](CCCCN)NC(=O)[C@H](Cc1c[nH]c2ccccc12)NC(=O)[C@@H](N)CCCCN)C(N)=O [CA] (H-KWKLFKKI-NH2)	203.19	128 (≈ 139 µg/mL)	>128	64 (≈ 69.7 µg/mL)	>128	>128	>128	>128	>128	>128	15.54	–	–	–	–	–
CC[C@H](C)[C@H](NC(=O)[C@H](CCCCN)NC(=O)[C@H](CCCCN)NC(=O)[C@H](Cc1ccccc1)NC(=O)[C@H](CC(C)C)NC(=O)[C@H](CCCCN)NC(=O)[C@H](Cc1c[nH]c2ccccc12)NC(=O)[C@@H](N)CCCCN)C(=O)N[C@@H](Cc1c[nH]c2ccccc12)C(=O)N[C@@H](Cc1c[nH]c2ccccc12)C(=O)N1CCC[C@H]1C(=O)N[C@@H](Cc1ccccc1)C(=O)N[C@@H](CC(C)C)C(=O)N[C@@H](CCCNC(=N)N)C(=O)N[C@@H](CCCNC(=N)N)C(N)=O [CA-TP] (H-KWKLFKKIWWPFLRR-NH2)	2.72	2 (≈ 4.26 µg/mL)	4 (≈ 8.53 µg/mL)	2 (≈ 4.26 µg/mL)	4 (≈ 8.53 µg/mL)	2 (≈ 4.26 µg/mL)	2 (≈ 4.26 µg/mL)	2 (≈ 4.26 µg/mL)	4 (≈ 8.53 µg/mL)	4 (≈ 8.53 µg/mL)	49.66	4	4	–	–	–
